Test results as given in patent US11998602B2, “Methods for promoting myelination and for treating demyelinating diseases” (The Scripps Research Institute, priority 2018, dated 2024).

Test system: Rat primary optic nerve OPCs
Test: High content imaging assay of OPC differentiation (MBP, A2B5, DAPI cell counts)
Format: cell-based
Method: Rat primary optic nerve OPCs were isolated by panning (>99% A2B5^+) and cultured in poly-D-lysine (10 μg/ml)-coated TC dishes in OPC culture media (Neurobasal Media, Invitrogen) supplemented with B27-without vitamin A (Invitrogen), 1× non-essential amino acids, 1× Glutamax, 1× anti-anti, β-mercaptoethanol and PDGF-AA (50 ng/ml; Peprotech) at 37° C. with 5% CO2. The culture medium was replaced every 48 h and cells were collected before the confluency reached 60% to maintain a naive state. For differentiation, OPCs were plated at 1 million cells in one 10 cm petri-dish filled with differentiation media, which is identical to the culture media, but with PDGF-AA at 2 ng/ml. T3 and DMSO were used as the positive control and negative control, respectively. Five replicates of cells were collected at different times (0, 3, and 6 days) for metabolomics studies. High content imaging. For dose-response co-treatment experiments, black, clear-bottom 384-well plates (Greiner) were coated with poly-D-lysine (10 μg ml^−1 in PBS). miconazole and benztropine were added at 8 doses in differentiation media; 3-fold dilutions down from 10 μM. taurine was then added at 8 concentrations; 3-fold dilutions down from 20 mM. This 384-well format was also utilized for experiments combining benztropine (0.5 μM), miconazole (2 μM) or T3 (1 μM) with propargylglycine (0.1, 3, 10, 30 μM), reduced glutathione (1, 10, 30, 100 μM) or ascorbic acid ([…]). OPCs were then seeded at a density of 1,000 cells per well, and the plates were incubated at 37° C. with 5% CO2 for 6 days. For time course experiments, cells were seeded at a density of 5,000 cells per well in poly-D-lysine-coated 96-well plates. Cells were treated with DMSO (0.1%), benztropine (0.5 μM), miconazole (2 μM) or T3 (1 μM) on day 0, and taurine (20 mM) was added in combination at 0, 1 or 3 days post-drug treatment. The plates were incubated at 37° C. with 5% CO2 for 6 days. On day 6, cells were then fixed for 20 min with 4% formaldehyde solution and stained with mouse anti-Myelin Basic Protein (MBP) antibody (MAB382, Millipore) or anti-A2B5 antibody (MAB312, Millipore) in 3% BSA, 0.3% Triton X-100 with overnight incubation at 4° C. The cells were washed and incubated with secondary antibody (goat anti-mouse Alexa Fluor488) and DAPI (Invitrogen) for 1 h at room temperature. The cells were washed and plates were sealed and imaged using an Opera confocal imaging reader (Perkin Elmer) or a Cellomics Cell Insight imaging reader (Thermo). An air ×10 lens was used to capture 9 images per well at both wavelengths (488 and 365 nm), with each image representing a different unique locations field in a single well. For image analysis, DAPI-stained nuclei and MBP-positive or A2B5-positive cell bodies were detected using an algorithm that selects for positive cell bodies and nuclei within a range of fluorescent emission values and sizes as determined by fitting parameters to positive (T3, 1 μM) and negative controls (DMSO, 0.1%). The numbers of DAPI-positive objects were enumerated in experiments where cell counts were required. Numerical results from the analyzed images were later exported for analysis using Excel (Microsoft) and/or Genedata software.

For `NCCS(=O)(=O)O` [taurine, 2-aminoethanesulfonic acid], the “Enhancement of overall cell number compared to drug treatment alone” value (>2 mM taurine with miconazole or benztropine, 6 days) was “over 20%”, the “Days of taurine addition with the most significant impact on MBP expression” value (dosing initiated at days 0 to 5, evaluated at day 6) was “between days 1 and 3” and the “Impact on MBP expression of taurine addition on day 0 compared with days 1 to 3” value (evaluated at day 6) was “significantly less efficacious”. For the same compound, the “Impact on number of residual immature A2B5+ OPCs” value (taurine added on day 0, 1 or 3 to basal or drug-induced conditions, read at day 3 or day 6) was “minimal, albeit statistically significant, impact”.
